Drawing on the NIST ThermoML archive (doi:10.1021/je300826t), this text covers refractive index and mass density for six compounds.

Series [1] in a line: refractive index (Na D-line) (dimensionless). Particulars: 298.15 K; 101.33 kPa; Liquid; Standard Abbe refractometry.
The conditions of series [2]: 298.15 K; 101.33 kPa; Liquid; Vibrating tube method.

Numbers after ± are expanded uncertainties.

Consider `CCCCn1cc[n+](C)c1.COS(=O)(=O)[O-]` [1-butyl-3-methylimidazolium methyl sulfate], for which, in series [1], the refractive index turned out to be 1.47792 ± 0.0007. For the same compound, the mass density in series [2] is reported as 1212.59 ± 0.41 kg/m3.

`c1ccccc1` [benzene]: the refractive index in series [1] came out at 1.49774 ± 0.00068. Also, the mass density in series [2] was determined as 873.57 ± 0.11 kg/m3.

Consider `C1CCCCC1` [cyclohexane], for which the refractive index in series [1] was found to be 1.4236 ± 0.00068. Moreover, the mass density in series [2] is on record as 773.8 ± 0.13 kg/m3.

In the case of `C1CCCCCCC1` [cyclooctane], the refractive index in series [1] is on record as 1.45598 ± 0.0007. Moreover, the mass density in series [2] is 831.47 ± 0.24 kg/m3.

Turning to `CCc1ccccc1` [ethylbenzene], in series [1], the refractive index was 1.49304 ± 0.00068. Besides, in series [2], the mass density is given as 862.51 ± 0.11 kg/m3.

In the case of `CC1CCCCC1` [methylcyclohexane], the refractive index in series [1] was 1.42062 ± 0.0007. Besides, the mass density in series [2] came out at 765.02 ± 0.24 kg/m3.
